Data published in patent publication EP3408309B1 (priority 2016, dated 2017).

How the values were obtained:
[1] = target: Influenza neuraminidase; details: competitive inhibitors, background statement; cited from earlier work
[2] = system: influenza A virus (X-31, H3N2); assay: Hemagglutination inhibition (HAI) assay; type: cell-based
[3] = system: fluorescently labeled X31; assay: Microscale thermophoresis binding to whole virus particles; parameters: species or system influenza strain A/Aichi/2/68 H3N2; details: apparent dissociation constant, one site binding fit; read-out: Kdapp Particle
Source text: The examined IPGSAs show one binding step. Binding constants are described as apparent dissociation constants (Kdapp) derived from a one site binding fit of each binding step. Error bars indicate the standard error of the mean (n≥3).

[4] = system: X31; assay: Infection inhibition experiment with X31 in BALB/c mice; type: in vivo; details: X31 pretreated with inhibitor, intranasal application; loss in body weight over 11 days
Description: Figure 7A and 7B show the results of an infection inhibition experiment with X31 in BALB/c mice. X31 was pretreated with inhibitor at the indicated concentrations, followed by intranasal application of the mixture to sedated mice.
In the experiments, the results of which are depicted in Figure 7A, the infection-related loss in body weight was daily controlled for 11 days. IPGSA 3 at 5 mM and 1 mM sialic acid concentrations was compared to infected/untreated, uninfected/untreated or infected/control treated (linPGOH 1) cases. The effect of a cytokine storm related loss in body weight was controled by using UV inactivated X31, which was not infectious, but still able to hemagglutinate as the untreated virus. Error bars indicate the standard error of the mean (n≥5).
Error bars indicate the standard error of the mean (n≥5).

Row | Compound | IC50 values, enzyme inhibition [1] | Enhancement factor (β) ([2]; inhibition potency compared to monomeric α-2,6-sialyllactose) | Ki ([2]; sialic acid concentration, 4 HAU X31, lowest concentration for 100% inhibition, * = maximum tested concentration, read-out: Ki(HAI) SA) [mM] | Kd [3] [mM] | infection inhibition in vivo [4]
1 | CC(=O)N[C@H]1[C@H]([C@H](O)[C@H](O)CO)OC(C(=O)O)=C[C@@H]1N=C(N)N [Relenza, Zanamivir] | low | – | – | – | –
2 | CC(=O)N[C@H]1[C@H]([C@H](O)[C@H](O)CO)O[C@@](OC[C@H]2O[C@@H](O[C@H]3[C@H](O)[C@@H](O)C(O)O[C@@H]3CO)[C@H](O)[C@@H](O)[C@H]2O)(C(=O)O)C[C@@H]1O (stereo partly drawn) [α-2,6-sialyllactose] | – | 1 | 48.1 ± 1.41 | 2.5 | –
3 | CCOC(=O)C1=C[C@@H](OC(CC)CC)[C@H](NC(C)=O)[C@@H](N)C1 [Tamiflu, Oseltamivir] | low | – | – | – | not able to cause potent infection inhibition
